Experimental data as given in ChEMBL document CHEMBL3875219, “Hetero-Diels-Alder approach to Bis(indolyl)methanes” (Bioorg Med Chem, 2017).

Tests used:
[1] = Cytotoxicity against mouse EL4 cells assessed as reduction in cell viability after 72 hrs by MTT assay; format: functional, cell-based; conditions: EL4, 72 h
[2] = Cytotoxicity against human THP1 cells assessed as reduction in cell viability after 72 hrs by MTT assay; format: functional, cell-based; conditions: THP-1, 72 h
[3] = (§1) Cytotoxicity against mouse S17 cells assessed as reduction in cell viability after 72 hrs by MTT assay; format: toxicity, cell-based; conditions: mouse, S17 cells
EL4 = test: Selectivity index, ratio of IC50 for mouse S17 cells to IC50 for mouse EL4 cells; format: functional
THP-1 = test: Selectivity index, ratio of IC50 for mouse S17 cells to IC50 for human THP1 cells; format: functional
U-937 = test: Selectivity index, ratio of IC50 for mouse S17 cells to IC50 for human U937 cells; format: functional
[4] = Cytotoxicity against human U937 cells assessed as cell viability at 100 uM after 72 hrs by MTT assay relative to control; format: functional; conditions: U-937, 72 h, read-out: Activity
[5] = Cytotoxicity against human U937 cells assessed as reduction in cell viability after 72 hrs by MTT assay; format: functional, cell-based; conditions: U-937, 72 h
Mus musculus = species: Mus musculus; test: as §1; format: toxicity, cell-based; conditions: s17
[6] = Cytotoxicity against mouse S17 cells assessed as cell viability at 100 uM after 72 hrs by MTT assay relative to control; format: toxicity; conditions: read-out: Activity

Structure (SMILES)	IC50 [1] [µM]	IC50 [2] [µM]	IC50 at 72 h [3] [µM]	Ratio IC50 (EL4)	Ratio IC50 (THP-1)	Ratio IC50 (U-937)	viability at 100 µM [4] [%]	IC50 [5] [µM]	IC50 (Mus musculus)	viability at 72 h, 100 µM [6] [%]
C/C(=N/NC(=O)OC(C)(C)C)C(c1cn(Cc2ccccc2)c2ccccc12)c1cn(Cc2ccccc2)c2ccccc12	5.56	38.8	7.65	1.38	<1	<1	66.6			
O/N=C(/c1ccc(Br)cc1)C(c1c[nH]c2ccc(Br)cc12)c1c[nH]c2ccc(Br)cc12	7.65	12.2						18.6		
C/C(=N/NC(=O)OC(C)(C)C)C(c1c[nH]c2ccc(Br)cc12)c1c[nH]c2ccc(Br)cc12	22.5	36.2	41.3	1.84	1.14	1.46		28.3		
C/C(=N/NC(=O)OC(C)(C)C)C(c1c[nH]c2ccc(O)cc12)c1c[nH]c2ccc(O)cc12	15.4	28.6		6.49	3.5	<1		157	Non-Toxic	48.4
C/C(=N/NS(=O)(=O)c1ccc(C)cc1)C(c1c[nH]c2ccccc12)c1c[nH]c2ccccc12	18.9	23.5	25	1.32	1.06	1.09		22.9		
C/C(=N/NC(=O)OC(C)(C)C)C(c1cn(C)c2ccccc12)c1cn(C)c2ccccc12	9.99	25.3						14.2		
Cc1ccc2[nH]cc(C(/C(=N\O)c3ccc(Br)cc3)c3c[nH]c4ccc(C)cc34)c2c1	3.23	6.34	11.5	3.56	1.81	1.17		9.79		
C/C(=N/NC(=O)OC(C)(C)C)C(c1c[nH]c2ccccc12)c1c[nH]c2ccccc12	15.3	30	50	3.27	1.67	2		25		
COc1ccc2[nH]cc(C(/C(=N\O)c3ccc(Br)cc3)c3c[nH]c4ccc(OC)cc34)c2c1	9.29	22.6	17.7	1.91	<1	<1		18.1		
C/C(=N/Nc1ccc([N+](=O)[O-])cc1[N+](=O)[O-])C(c1c[nH]c2ccccc12)c1c[nH]c2ccccc12	5.45	14	7.92	1.45	<1	<1		13.3		
O/N=C(/c1ccc(Br)cc1)C(c1c[nH]c2ccc(O)cc12)c1c[nH]c2ccc(O)cc12	15.6	15.5	21.9	1.4	1.41	1.71		12.8		
COc1cc([C@@H]2c3cc4c(cc3[C@@H](O[C@@H]3O[C@@H]5CO[C@@H](C)O[C@H]5[C@H](O)[C@H]3O)[C@H]3COC(=O)[C@H]23)OCO4)cc(OC)c1O [ETOPOSIDE]	4.9	1.82	10.4					1.1		
